Reference: patent US5149631A, “Compound marked with tritium, its preparation and its use in the location of nuclear receptors of retinoids” (Centre International de Recherches Dermatologiques Galderma …, priority 1989, dated 1992)

Experiments:
[1] = test system: retinoic acid nuclear receptors (RARs); assay: Fixing on nuclear receptors RARs in nucleosol of F9 cells, analysed by HPSEC; type: binding, murin; details: for molecules of ligand fixed to the RARs per cell (HPSEC peak surface standardized to number of cells): F9 cells, 20 nM tritiated ligand
Method: Cultures of F9 cells of murin embryonic carcinoma (normally four 90 mm dishes containing in total 4-7×10^7 cells per incubation condition) were washed once with pBS (saline phosphate buffer) and incubated for 3 hours in a medium, without serum, supplemented with the marked retinoic homolog (to verify the specifity). The cells were then detached with a trypsin-EDTA mixture and numbered with a Burker hemocytometer. […] 50 μl of marked extract were injected on a 9×250 mm GF 250 column (Dupont de Nemours). The elution was carried out in a buffer 0.3M KH2 PO4, pH 7.8 at a rate of 1 ml/min. The protein content was followed by measuring the optical density at 280 nm. 28 fractions of 0.3 ml each were collected and counted in Picofluor (Packard) scintillating agent. For each retinoid concentration, the number of bonded molecules was determined using the surface of the radioactivity peak and the calculated concentration of demisaturation (C50). The molecular weight calibration of the column was carried out using human albumin (67 kDa), ovalbumin (45 kDa) and myoglobin (16.8 kDa). The dose-response curves and the competition curves were analyzed on a computer through nonlinear regression using the various forms of the Clark equation.

[2] = biological target: T1, CRABP (cellular retinoic acid binding protein) (Rattus norvegicus, UniProt P62966); assay: Direct fixing on CRABP binding protein in rat testicle cytosol, Sephadex G25 separation
T1 construct: rat testicle cytosol containing CRABP; from tissue; host or cells: rat testicle homogenate / cytosol
T1 sequence (P62966 whole entry): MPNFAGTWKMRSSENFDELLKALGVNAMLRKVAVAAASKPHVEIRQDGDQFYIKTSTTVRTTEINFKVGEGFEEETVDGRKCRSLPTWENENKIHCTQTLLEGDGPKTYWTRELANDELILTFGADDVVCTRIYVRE
Method: The difference ( -- ) represents the specific bond.
The total fixing non-specific+specific ( .circle.-- .circle.) is obtained by incubation of increasing concentration (up to a maximum of […]) of the claimed compound with a constant quantity (0.3 ml) of a rat testicle homogenate (CRABP-rich organ). The non-specific fixing of the tritiated compound is determined in parallel, by measuring the fixing with increasing concentrations of the radioactive ligand in the presence of a large excess (1 μm) of cold homolog ligand (.quadrature.--.quadrature.). An incubation time of two hours is necessary for the establishment of balanced conditions.
The elution is done directly in scintillation tubes and the radioactivity is measured by counting.
The difference between the total fixing curve ( .circle.-- .circle.) and non-specific fixing (.quadrature.--.quadrature.) gives the specific fixing curve ( -- ). Analysis of this curve provides the dissociation constant at equilibrium (Kd) which is the concentration of the product required for 50% saturation of CRABP. This constant is a measurement of the affinity of the ligand for its bonding protein, Kd being inversely proportional to affinity (the smaller the Kd, the greater the affinity).

specific fixing on CRABP ([2]; rat testicle homogenate, increasing concentrations of tritiated ligand, with or without 1 μm cold homolog ligand, two hours incubation)	Compound	fixing on RARs in the presence of excess cold ligand ([1]; F9 cells incubated with 20 nM tritiated retinoic acid, excess of 100 times of cold retinoic acid)	molecules of ligand fixed to the RARs per cell (HPSEC peak surface standardized to number of cells) [1]	nature of the specific fixing on CRABP ([2]; rat testicle cytosol)	non-specific fixing as share of the total fixing ([2]; rat testicle cytosol, in the range of concentrations employed)	specificity of fixing on RARs (about 45 kDa radioactivity peak) ([1]; F9 cells incubated with 20 nM tritiated ligand, co-incubation with an excess of 1000 times of cold compound I)
	CC1=C(/C=C/C(C)=C/C=C/C(C)=C/C(=O)O)C(C)(C)CCC1 [retinoic acid]	inhibited	approximately 4,000 molecules per cell	saturable and reversible	less than 20%	
no specific fixing	[3H]c1cc(-c2ccc3cc(C(=O)O)ccc3c2[3H])cc(C23CC4CC(CC(C4)C2)C3)c1OC [Example 1, 6-[3-(1-adamantyl)-4-methoxyphenyl]-2-naphthoic acid marked with tritium]		approximately 4,000 molecules per cell			specific
